Source: patent publication US8785493B2, “Treatment of retroviral reservoirs exploiting oxidative stress” (Istituto Superiore di Sanita, priority 2008, dated 2014)
Where two headings read alike, the source gives them in different places.

How the values were obtained:
[1] = test system: HIV-1 replication in latently HIV-1 infected lymphocytic ACH-2 cells; assay type: cell-based; conditions: for Induction of HIV-1 replication by the agent alone, ACH-2 cells: data not shown
[2] = test system: HIV-1 replication in latently HIV-1 infected monocytoid U1 cells; assay type: cell-based
[3] = test system: HIV-1 LTR in Jurkat A1 cells; assay type: cell-based
Maize HD1-B = Maize HD1-B (Zea mays, UniProt Q9ZTP8); experiment: Maize HD1-B enzyme inhibition in vitro; assay type: biochemical
Description: (§1) Maize HD2, HD1-B, and HD1-A Enzyme Inhibition in Vitro. Radioactively labelled chicken core histones were used as the enzyme substrate according to established procedures [referenced in: Mai et al., 2006]. The enzyme liberated tritiated acetic acid from the substrate, which was quantified by scintillation counting. The IC50 values are the results of triple determinations. A 50 μL sample of maize enzyme (at 30° C.) was incubated (30 min) with 10 microL of total [^3H]acetate-prelabelled chicken reticulocyte histones (2 mg/mL). The reaction was stopped by the addition of 36 microL of 1 M HCl/0.4 M acetate and 800 microL of ethyl acetate. After centrifugation (10 000 g, 5 min), an aliquot of 600 microL of the upper phase was counted for radioactivity in 3 mL of liquid scintillation cocktail. The compounds were tested at a starting concentration of 40 microM, and active substances were diluted further. TSA and SAHA were used as the reference compounds, and blank solvents were used as negative controls [Mai et al. 2006].

Maize HD1-A = Maize HD1-A (Zea mays, UniProt Q7XAX9); experiment: Maize HD1-A enzyme inhibition in vitro; assay type: biochemical
Description: as §1

mouse HDAC1 = mouse HDAC1 (Mus musculus, UniProt O09106); experiment: Mouse HDAC1 enzyme assay; assay type: biochemical
Description: Mouse HDAC1 Enzyme Assay. […] HDAC activity was determined using [^3H]acetate-prelabelled chicken reticulocyte histones as the substrate. Mouse HDAC1 (50 microL) was incubated with different concentrations of compounds for 15 min on ice, and 10 μL of total [^3H]acetate-prelabelled chicken reticulocyte histones (2 mg/mL) were added, resulting in a concentration of 41 microM. The mixture was incubated at 37° C. for 1 h. The reaction was stopped by the addition of 50 microL of 1 M HCl/0.4 M acetylacetate and 1 mL ethyl acetate. After centrifugation at 10 000 g for 5 min, an aliquot of 600 microL of the upper phase was counted for radioactivity in a 3 mL liquid scintillation cocktail [Mai et al., 2006].

IP HDAC1 = IP HDAC1 (Homo sapiens, UniProt Q13547); experiment: Human HDAC1 assay on immunoprecipitate (IP) from U937 cells; assay type: biochemical
Description: (§2) Cell-Based Human HDAC1 and HDAC4 Assays. […] Then, 1000 micrograms of extracts were diluted in IP buffer up to 1 mL and pre-cleared by incubating with 20 microL of A/G plus Agarose (Santa Cruz) for 30 min to 1 h on a rocking table at 4° C. Supernatants were transferred into a new tube, and the antibodies (around 3 to 4 μg) were added and IP was allowed to proceed overnight at 4° C. on a rocking table. The antibodies used were HDAC1 (Abcam) and HDAC4 (Sigma). As the negative control, the same amount of protein extracts were immunoprecipitated with the corresponding purified IgG (Santa Cruz). On the next day, 20 microL of A/G and Agarose (Santa Cruz) were added to each IP, and incubation was continued for 2 h. The beads were recovered by brief centrifugation and washed with cold IP buffer several times. The samples were than washed twice in PBS and re-suspended in 20 microL of sterile PBS. The HDAC assay was carried out according to the supplier's instructions (Upstate). Briefly, samples immunoprecipitated with the HDAC4 and HDAC1 or with purified IgG were pooled separately to homogenise all samples. Then, 10 microL of the IP was incubated with a previously labelled ^3H-Histone H4 peptide linked with streptavidine agarose beads (Upstate). In detail, 120 000 CPM of the H4-^3H-acetyl-peptide was used for each tube and incubated in 1 HDAC buffer with 10 microL of the sample in the presence or absence of HDAC inhibitors with a final volume of 200 μL. Those samples were incubated overnight at 37° C. in slow rotation. On the next day, 50 μL of a quenching solution was added, and 100 microL of the samples were counted in duplicate after brief centrifugation in a scintillation counter.

IP HDAC4 = IP HDAC4 (Homo sapiens, UniProt P56524); assay type: biochemical
Description: as §2

[4] = test system: Non-infected H9 and U937, HIV-1 infected H9IIIB, ACH-2 and U1 cells; experiment: Selective killing, MTT cell viability, infected versus non-infected cells; assay type: cell-based; conditions: seven days
Excerpt: Cell viability assay. Cell viability was quantitated using the highly standardised methyl tetrazolium (MTT) procedure (described in detail in: Savarino A, Calosso L, Piragino A, Martini C, Gennero L, Pescarmona G P, Pugliese A. Modulation of surface transferrin receptors in lymphoid cells de novo infected with human immunodeficiency virus type-1. Cell Biochem Funct. 1999 March; 17(1):47-55). Absorbance values were generated at a wavelength of 450 nm using 96-well ELISA readers and subtracted of the blank values using cell culture media in the absence of cells. Cell viability in the presence of the test compounds was expressed as a percentage of the cell viability of control untreated cell cultures. For testing of selective killing, Non-infected H9, and U937, and HIV-1 infected HIIIB, ACH-2, and U1 cells were incubated with the test compounds for seven days, and cell viability was measured as described above.

HDACs = experiment: HDAC class selectivity (HDACs inhibited); assay type: biochemical; conditions: Class 1 selective or NS (non-selective)
latent HIV-1 = conditions: cited from earlier work
[5] = test system: HIV-1 LTR in quiescently infected Jurkat 8.4 cells; experiment: HIV-1 LTR-controlled GFP expression, flow cytometry, Jurkat clone 8.4; assay type: cell-based; conditions: for LTR-controlled GFP expression, Jurkat 8.4 cells: 72 h, gated live cells
[6] = test system: NF-kappaB (p65/p50) in Jurkat 8.4 cells; experiment: NF-kappaB nuclear translocation, colorimetric p65 assay; assay type: cell-based; set-up: dose or concentration left out as unconfirmed; conditions: auranofin, different incubation times, relative to TNF-alpha 1.5 h
Description: Detection of NF-kappaB nuclear translocation. Nuclear extracts from control Jurkat 8.4 cells and cells treated with auranofin at different times of incubation were obtained using a nuclear extraction kit (Chemicon International), following the Manufacturer's instructions. NF-kappaB nuclear translocation was detected using a colorimetric transcription factor assay (Millipore) for the p65 subunit. Results were expressed as a percentage of the signal obtained in cells incubated with the potent NF-kappaB stimulating cytokine TNF-alpha (5 ng/ml) for 1.5 h, at which the peak of nuclear translocation of NF-kappaB is reached.

our cell lines = experiment: Toxicity of auranofin to the cell lines used; assay type: cell-based; conditions: concentrations approx. two orders of magnitude superior to those of the present study, data not shown
Excerpt: Cell viability assay. Cell viability was quantitated using the methyl tetrazolium (MTT) procedure. Absorbance values were generated at a wavelength of 550 nm using 96-well ELISA readers and subtracted of the blank values using cell culture media in the absence of cells. Cell viability in the presence of the test compounds was expressed as a percentage of the cell viability of control untreated cell cultures.

IP HDAC1, sequence (Q13547 whole entry): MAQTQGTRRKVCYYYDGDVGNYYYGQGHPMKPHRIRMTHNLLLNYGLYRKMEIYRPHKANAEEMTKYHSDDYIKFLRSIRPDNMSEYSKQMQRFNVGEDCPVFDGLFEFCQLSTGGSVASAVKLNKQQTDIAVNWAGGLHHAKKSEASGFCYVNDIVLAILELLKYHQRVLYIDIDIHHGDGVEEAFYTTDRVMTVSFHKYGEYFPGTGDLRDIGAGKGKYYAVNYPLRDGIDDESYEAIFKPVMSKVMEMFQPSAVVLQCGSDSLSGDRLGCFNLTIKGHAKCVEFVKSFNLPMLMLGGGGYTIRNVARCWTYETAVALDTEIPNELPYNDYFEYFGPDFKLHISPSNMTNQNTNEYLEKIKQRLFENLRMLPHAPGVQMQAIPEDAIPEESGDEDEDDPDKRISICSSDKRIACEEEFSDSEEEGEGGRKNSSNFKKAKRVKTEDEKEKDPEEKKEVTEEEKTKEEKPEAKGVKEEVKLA
Maize HD1-B, sequence (Q9ZTP8 entry or part of it): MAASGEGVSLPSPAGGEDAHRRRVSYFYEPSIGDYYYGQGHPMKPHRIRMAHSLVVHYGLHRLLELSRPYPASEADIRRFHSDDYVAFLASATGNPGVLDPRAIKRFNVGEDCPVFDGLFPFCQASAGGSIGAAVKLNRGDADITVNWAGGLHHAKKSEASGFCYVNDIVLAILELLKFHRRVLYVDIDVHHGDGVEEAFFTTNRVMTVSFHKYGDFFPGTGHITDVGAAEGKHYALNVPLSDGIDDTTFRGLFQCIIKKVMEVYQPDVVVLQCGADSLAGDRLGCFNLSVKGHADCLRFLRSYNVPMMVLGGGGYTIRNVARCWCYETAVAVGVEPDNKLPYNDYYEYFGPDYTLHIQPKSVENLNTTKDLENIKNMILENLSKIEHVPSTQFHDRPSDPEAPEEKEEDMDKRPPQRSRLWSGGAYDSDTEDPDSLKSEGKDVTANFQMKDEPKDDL
mouse HDAC1, sequence (O09106 whole entry): as the sequence (Q13547 whole entry) above, with R8K, D399E, E424D counted along it
Maize HD1-A, sequence (Q7XAX9 entry or part of it): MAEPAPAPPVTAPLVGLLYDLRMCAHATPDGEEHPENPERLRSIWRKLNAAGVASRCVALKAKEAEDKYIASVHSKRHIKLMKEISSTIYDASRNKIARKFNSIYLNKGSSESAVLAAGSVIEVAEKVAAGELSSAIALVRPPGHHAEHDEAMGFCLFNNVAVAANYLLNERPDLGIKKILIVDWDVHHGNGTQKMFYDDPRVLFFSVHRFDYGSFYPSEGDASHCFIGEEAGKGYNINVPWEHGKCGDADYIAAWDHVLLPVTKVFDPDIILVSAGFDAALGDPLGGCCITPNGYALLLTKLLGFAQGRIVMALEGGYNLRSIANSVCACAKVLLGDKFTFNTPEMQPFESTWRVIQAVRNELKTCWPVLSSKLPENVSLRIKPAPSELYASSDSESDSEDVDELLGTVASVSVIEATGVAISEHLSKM
IP HDAC4, sequence (P56524 whole entry): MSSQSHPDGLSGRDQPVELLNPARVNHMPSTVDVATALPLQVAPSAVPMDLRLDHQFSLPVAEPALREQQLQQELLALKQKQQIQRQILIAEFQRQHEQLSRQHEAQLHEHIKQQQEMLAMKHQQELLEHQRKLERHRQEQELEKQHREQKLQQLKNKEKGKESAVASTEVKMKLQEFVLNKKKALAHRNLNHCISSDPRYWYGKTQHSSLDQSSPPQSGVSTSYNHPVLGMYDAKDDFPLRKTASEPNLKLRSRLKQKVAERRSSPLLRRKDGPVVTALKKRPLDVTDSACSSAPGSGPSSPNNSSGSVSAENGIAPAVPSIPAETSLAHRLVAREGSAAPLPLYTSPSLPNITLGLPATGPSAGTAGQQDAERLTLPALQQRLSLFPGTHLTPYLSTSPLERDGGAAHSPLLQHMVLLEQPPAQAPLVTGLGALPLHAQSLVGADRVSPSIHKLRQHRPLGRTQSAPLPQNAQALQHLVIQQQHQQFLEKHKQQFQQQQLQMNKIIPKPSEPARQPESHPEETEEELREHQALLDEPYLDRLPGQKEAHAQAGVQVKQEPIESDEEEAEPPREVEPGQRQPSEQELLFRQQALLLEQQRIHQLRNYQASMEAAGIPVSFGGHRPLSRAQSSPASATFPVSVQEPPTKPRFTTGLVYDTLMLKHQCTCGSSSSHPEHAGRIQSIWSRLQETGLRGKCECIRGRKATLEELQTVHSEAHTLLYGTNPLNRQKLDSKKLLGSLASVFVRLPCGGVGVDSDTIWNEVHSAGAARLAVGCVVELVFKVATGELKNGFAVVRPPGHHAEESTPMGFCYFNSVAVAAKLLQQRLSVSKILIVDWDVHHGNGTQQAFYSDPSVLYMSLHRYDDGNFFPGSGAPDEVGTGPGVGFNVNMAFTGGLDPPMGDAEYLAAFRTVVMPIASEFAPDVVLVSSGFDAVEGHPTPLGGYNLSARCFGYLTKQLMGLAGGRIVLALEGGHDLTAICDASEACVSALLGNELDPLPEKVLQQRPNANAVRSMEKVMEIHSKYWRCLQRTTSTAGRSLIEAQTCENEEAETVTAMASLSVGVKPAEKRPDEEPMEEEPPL

| Compound | IC50 (Maize HD1-B) | IC50 (Maize HD1-A) | IC50 (mouse HDAC1) | inhibition at 5 µM (IP HDAC1) | inhibition at 5 µM (IP HDAC4) | HDACs inhibited (HDACs) | further results |
| --- | --- | --- | --- | --- | --- | --- | --- |
| CCCCS(=N)(=O)CCC(N)C(=O)O (stereo not shown) [BSO, buthionine sulfoximine] | – | – | – | – | – | – | Induction of HIV-1 replication by the agent alone, ACH-2 cells ([1]; concentrations up to 500 μM): had no effect; Induction of HIV-1 replication by the agent alone, ACH-2 cells [1]: did not significantly induce HIV-1 replication; Induction of HIV-1 replication by the agent alone, U1 cells ([2]; data not shown): did not significantly induce HIV-1 replication; GFP expression in combination with HDACi (MS-275), Jurkat A1 cells ([3]; 72 h): recruited HDACi-insensitive cells into the responding cell population; LTR-controlled GFP expression, Jurkat A1 cells ([3]; 72 h): induced LTR activation in a small proportion of cells |
| O=C([O-])CN(CC(=O)[O-])CC(=O)[O-].[Fe+3] [FeNTA, iron nitriloacetate] | – | – | – | – | – | – | Induction of HIV-1 replication by the agent alone, ACH-2 cells [1]: dose-dependently induced HIV-1 replication |
| O=C(/C=C/c1ccc(NC(=O)C(c2ccccc2)c2ccccc2)cc1)NO [MC 1855] | 0.162 µM | 0.055 µM | 0.128 µM | 78.7% | 0% | Class 1 | Selective killing of HIV-1 infected cells versus uninfected counterparts [4]: selective killing of HIV-1-infected cells |
| CC(C(=O)Nc1ccc(/C=C/C(=O)NO)cc1)c1ccccc1 (stereo not shown) [MC 1857] | 0.072 µM | 0.08 µM | 0.291 µM | 79.3% | – | – | – |
| CCC(C(=O)Nc1ccc(/C=C/C(=O)NO)cc1)c1ccccc1 (stereo not shown) [MC 1864] | 0.089 µM | 0.064 µM | 0.305 µM | 55% | 60.4% | – | – |
| O=C(/C=C/c1ccc(NC(=O)C(Cc2ccccc2)c2ccccc2)cc1)NO (stereo not shown) [MC 1895, 3-[4-(2,3-Diphenylpropionylamino)phenyl]-N-hydroxy-2-propenamide] | 0.133 µM | 0.074 µM | 0.083 µM | 72.5% | 16.1% | Class 1 | – |
| CCC(C(=O)Nc1ccc(/C=C/C(=O)NO)cc1)c1cccc2ccccc12 (stereo not shown) [MC 2111] | 0.058 µM | 0.042 µM | 0.62 µM | 73.6% | 0% | Class 1 | – |
| CCC(C(=O)Nc1ccc(/C=C/C(=O)NO)cc1)c1ccc2ccccc2c1 (stereo not shown) [MC 2113] | 0.062 µM | 0.069 µM | 0.56 µM | 64.9% | 22.4% | Class 1 | – |
| CC(C)C(C(=O)Nc1ccc(C(=O)NO)cn1)c1ccccc1 (stereo not shown) [MC 2195] | 0.011 µM | 0.008 µM | 0.069 µM | 46.7% | 93.1% | Class 1 | – |
| Nc1ccccc1NC(=O)c1ccc(CNC(=O)OCc2cccnc2)cc1 [MS 275] | – | – | – | 65.4% | – | Class 1 | Concentration range of activity in inducing HIV-1 escape from latency, ACH-2 cells ([1]; day 3, concentration-response 0.001-1 μM): nanomolar range; Combined HIV-1 promoting effect of HDACi with BSO, ACH-2 cells ([1]; percentage-of-synergism graph, three days): synergistic effect; Concentration range of activity in inducing HIV-1 escape from latency, U1 cells ([2]; not shown): nanomolar range |
| O=C(CCCCCCC(=O)Nc1ccccc1)NO [SAHA, suberoylanilide hydroxamic acid] | – | – | – | – | – | – | LTR-controlled GFP expression, Jurkat A1 cells ([3]; 72 h): induction of LTR-controlled expression of green-fluorescent protein (GFP) |
| CCCC(CCC)C(=O)O [VA, valproic acid] | – | – | – | – | – | – | EC50, HIV-1 escape from latency (latent HIV-1): millimolar range |
| N.N.[Cl][Pt][Cl] [cisplatin] | – | – | – | – | – | – | Concentration range activating latent HIV-1 ([3]; cell line models for HIV-1 latency): nanomolar range; Concentration range activating quiescent HIV-1 (latent HIV-1; Spandidos et al., 1990): micromolar |
| arsenic trioxide | – | – | – | – | – | – | LTR-controlled GFP expression, Jurkat 8.4 cells [5]: dose-dependent shift in fluorescence; LTR-controlled GFP expression, Jurkat A1 cells ([3]; 72 h): increased in response to arsenic trioxide in a concentration-dependent manner |
| gold(1+); 3,4,5-triacetyloxy-6-(acetyloxymethyl)oxane-2-thiolate; triethylphosphanium [auranofin] | – | – | – | – | – | – | Effect on HIV-1 replication (p24), ACH-2 cells ([1]; 0.125-0.5 μM, 24 h and 72 h): increased HIV-1 replication in a time- and dose-dependent manner; Combined HIV-1 activating effect with BSO, ACH-2 cells ([1]; auranofin plus BSO, percentage-of-synergism surface, three days): synergistic HIV-1 activating effects; Combined HIV-1 activating effect with FeNTA, ACH-2 cells ([1]; percentage-of-synergism surface, three days): synergistic HIV-1 activating effects; Effect on HIV-1 replication (p24), U1 cells ([2]; 0.125-0.5 μM, 24 h and 72 h): increased HIV-1 replication in a time- and dose-dependent manner; Combined HIV-1 activating effect with MC2113, U1 cells ([2]; auranofin 0.25 μM plus MC2113 1 μM, 24 h): synergistic; LTR-controlled GFP expression, Jurkat 8.4 cells [5]: dose-dependent shift in fluorescence; GFP expression in combination with HDACI (MC2113), Jurkat 8.4 cells ([5]; auranofin 0.25 microM plus MC2113 1 microM): recruited the HDACi-unresponsive cells into the responding cell population; LTR-controlled GFP expression, Jurkat A1 cells ([3]; 72 h): induction of LTR-controlled expression of green-fluorescent protein (GFP); NF-kappaB (p65) in nuclear extracts [6]: time-dependent NF-kappaB accumulation within the nuclei; Toxicity to cell lines (our cell lines): toxic to our cell lines |
